Patent publication US20070111952A1, “Glycosylated triketide delta lactones” (priority 2003, published 2007)

How the values were obtained:
[1] = system: A. azollae vegetative cells; test: Azolla shoot apex bioassay: akinete differentiation of A. azollae / chlorosis of Azolla; assay type: cell-based, Anabaena azollae
Experimental: Approximately 10 000 dried N. cornicina (36 g) were ground, suspended in 750 ml H2O, treated 60′ in a 100° C. water bath and centrifuged (14 000×g, 60′). The residue was re-suspended in 300 ml H2O, shacked 15′ and centrifuged (14 000×g, 60′). The two supernatants were grouped, filtered on Macherey-Nagel MN 615 paper and lyophilized. The dry residue (7 g) was suspended in 8 ml H2O, vortexed and centrifuged (7 800×g, 30′). Six ml of supernatant were filtered on acrodiscs 0.22 μm in four 1.5 ml batches, each filtrate being chromatographed on a 500 ml, 2.5 cm diameter Sephadex G 10 column (eluent: water; 3′/fraction, around 6 ml/fraction) The residue was suspended in 2 ml H2O, vortexed and centrifuged (7 800×g, 30′). Two ml of supernatant were filtered and chromatographed as above. This last procedure was repeated twice. Absorbance of each fraction was measured at 254 nm and bioassays were performed on 50 μl of each fraction from the seven chromatograms.
Azolla is a small aquatic fern, which multiplies, most often vegetatively, at the surface of still water bodies, where it can form dense floating carpets. Anabaena azollae is the only known diazotrophic symbiont associated to a pteridophyte, Azolla and the only one linked to a plant throughout its life cycle. […]

[2] = system: A. azollae vegetative cells; test: Stability of the akinete-inducing activity (autoclaving, long storage); design: species or system Anabaena azollae
Experimental: Extract of Nephrotoma cornicina (Linnaeus, 1758) (Tipulidae, Diptera) contains a glycosylated triketide lactone, here named cornicinine. The compound according to the invention is present in the head, thorax, abdomen, legs and wings of the insect, from both sexes.
An Azolla shoot apex +/−3 mm long was excised and placed in a 2 ml Eppendorf tube filled with modified, N-free Hoagland solution to which was added the material to be tested. The culture was performed at 26° C. under constant light intensity of 110 μM. m^−2.sec^−1 and with daily adjustment of the liquid level with distilled water to compensate evapotranspiration. Activity was indicated by progressive chlorosis of Azolla, which appears after 5 days. Akinete differentiation can alternatively be followed by observation of leaf squashes under a light microscope, with first symptoms appearing after 48 hours of treatment.

cornicinine
concentration able to induce the differentiation of all the vegetative cells of A. azollae into akinetes ([1]; all vegetative cells into akinetes): nanomolar concentrations | activity on Azolla species ([1]; the seven generally recognised Azolla species): active | stability [2]: stable
